Data published in paper PMC6437697 (Journal of Medicinal Chemistry, 2019).

How the values were obtained:
Test in all cases: KINOMEscan
Assay type in all cases: binding
Details in all cases: read-out: % control activity remaining
STK35 = target: T1, STK35 (Homo sapiens, UniProt Q8TDR2)
T1 construct: purchased Eurofins DiscoverX KINOMEscan

EGFR(G719S) = target: T2, EGFR(G719S) (Homo sapiens, UniProt P00533, G719S)
T2 construct: purchased Eurofins DiscoverX KINOMEscan

FLT3(N841I) = target: T3, FLT3(N841I) (Homo sapiens, UniProt P36888, N841I)
T3 construct: purchased Eurofins DiscoverX KINOMEscan
T3 sequence (P36888 27-993 N841I): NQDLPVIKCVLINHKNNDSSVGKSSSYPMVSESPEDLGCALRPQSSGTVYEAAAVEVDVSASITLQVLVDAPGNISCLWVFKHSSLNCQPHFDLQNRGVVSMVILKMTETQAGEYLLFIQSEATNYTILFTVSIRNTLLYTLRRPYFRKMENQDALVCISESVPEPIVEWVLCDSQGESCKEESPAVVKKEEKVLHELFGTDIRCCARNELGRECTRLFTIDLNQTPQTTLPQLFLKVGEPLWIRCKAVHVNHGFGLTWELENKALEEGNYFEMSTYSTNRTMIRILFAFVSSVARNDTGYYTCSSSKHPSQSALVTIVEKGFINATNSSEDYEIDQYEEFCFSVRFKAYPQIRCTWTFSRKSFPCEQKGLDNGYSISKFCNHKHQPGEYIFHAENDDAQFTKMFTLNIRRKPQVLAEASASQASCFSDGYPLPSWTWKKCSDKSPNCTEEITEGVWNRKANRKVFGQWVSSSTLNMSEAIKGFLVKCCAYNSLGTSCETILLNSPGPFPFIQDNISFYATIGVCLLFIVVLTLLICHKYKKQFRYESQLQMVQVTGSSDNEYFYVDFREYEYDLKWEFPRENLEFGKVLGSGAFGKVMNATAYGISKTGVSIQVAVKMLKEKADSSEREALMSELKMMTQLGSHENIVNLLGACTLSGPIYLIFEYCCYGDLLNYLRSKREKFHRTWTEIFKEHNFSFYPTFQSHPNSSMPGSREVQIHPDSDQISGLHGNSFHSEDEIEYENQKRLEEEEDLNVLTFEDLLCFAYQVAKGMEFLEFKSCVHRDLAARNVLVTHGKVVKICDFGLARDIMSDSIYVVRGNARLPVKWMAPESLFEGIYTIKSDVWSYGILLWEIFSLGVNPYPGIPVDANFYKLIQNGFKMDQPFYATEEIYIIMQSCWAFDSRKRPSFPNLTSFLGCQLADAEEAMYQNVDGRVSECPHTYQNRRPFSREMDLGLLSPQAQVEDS

PAK3 = target: T4, PAK3 (Homo sapiens, UniProt O75914)
T4 construct: purchased Eurofins DiscoverX KINOMEscan
T4 sequence (O75914 whole entry): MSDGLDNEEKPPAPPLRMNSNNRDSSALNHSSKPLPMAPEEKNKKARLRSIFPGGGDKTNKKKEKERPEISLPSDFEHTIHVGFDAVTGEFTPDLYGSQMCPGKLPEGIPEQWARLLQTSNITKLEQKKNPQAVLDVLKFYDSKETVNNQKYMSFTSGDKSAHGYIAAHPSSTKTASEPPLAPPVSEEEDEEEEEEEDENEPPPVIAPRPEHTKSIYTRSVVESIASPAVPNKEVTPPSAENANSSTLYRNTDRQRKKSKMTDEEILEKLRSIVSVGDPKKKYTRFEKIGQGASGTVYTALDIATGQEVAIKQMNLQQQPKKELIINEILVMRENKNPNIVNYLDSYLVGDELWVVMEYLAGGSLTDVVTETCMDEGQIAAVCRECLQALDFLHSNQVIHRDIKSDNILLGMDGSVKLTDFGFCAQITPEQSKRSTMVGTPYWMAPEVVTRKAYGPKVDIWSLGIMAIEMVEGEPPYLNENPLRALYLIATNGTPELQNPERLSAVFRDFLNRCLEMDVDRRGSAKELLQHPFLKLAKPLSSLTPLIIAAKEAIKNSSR

[1] = target: T5, JAK3(JH1domain-catalytic) (Homo sapiens, UniProt P52333)
T5 construct: JAK3(JH1domain-catalytic); purchased Eurofins DiscoverX KINOMEscan
T5 sequence (P52333 822-1124 limits assumed): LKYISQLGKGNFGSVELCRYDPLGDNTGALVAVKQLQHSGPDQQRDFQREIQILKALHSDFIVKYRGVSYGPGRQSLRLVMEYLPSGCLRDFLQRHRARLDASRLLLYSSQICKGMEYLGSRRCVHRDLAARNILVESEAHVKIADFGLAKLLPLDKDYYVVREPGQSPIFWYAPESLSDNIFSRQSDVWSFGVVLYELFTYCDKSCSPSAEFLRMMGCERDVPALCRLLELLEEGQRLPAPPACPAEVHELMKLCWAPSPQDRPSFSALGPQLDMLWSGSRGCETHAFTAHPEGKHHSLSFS

AURKB = target: T6, AURKB (Homo sapiens, UniProt Q96GD4)
T6 construct: purchased Eurofins DiscoverX KINOMEscan
T6 sequence (Q96GD4 whole entry): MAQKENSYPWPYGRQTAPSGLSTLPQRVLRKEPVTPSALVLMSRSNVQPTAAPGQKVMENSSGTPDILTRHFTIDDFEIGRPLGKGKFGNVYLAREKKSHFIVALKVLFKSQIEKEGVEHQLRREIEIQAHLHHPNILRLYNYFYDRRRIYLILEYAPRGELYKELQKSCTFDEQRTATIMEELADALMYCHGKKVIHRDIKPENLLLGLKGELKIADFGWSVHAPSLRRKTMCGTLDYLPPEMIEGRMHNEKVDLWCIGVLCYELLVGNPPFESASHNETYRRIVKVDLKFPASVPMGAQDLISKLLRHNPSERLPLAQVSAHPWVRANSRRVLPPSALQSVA

PIK3C2G = target: T7, PIK3C2G (Homo sapiens, UniProt O75747)
T7 construct: purchased Eurofins DiscoverX KINOMEscan
T7 sequence (O75747 1-1486): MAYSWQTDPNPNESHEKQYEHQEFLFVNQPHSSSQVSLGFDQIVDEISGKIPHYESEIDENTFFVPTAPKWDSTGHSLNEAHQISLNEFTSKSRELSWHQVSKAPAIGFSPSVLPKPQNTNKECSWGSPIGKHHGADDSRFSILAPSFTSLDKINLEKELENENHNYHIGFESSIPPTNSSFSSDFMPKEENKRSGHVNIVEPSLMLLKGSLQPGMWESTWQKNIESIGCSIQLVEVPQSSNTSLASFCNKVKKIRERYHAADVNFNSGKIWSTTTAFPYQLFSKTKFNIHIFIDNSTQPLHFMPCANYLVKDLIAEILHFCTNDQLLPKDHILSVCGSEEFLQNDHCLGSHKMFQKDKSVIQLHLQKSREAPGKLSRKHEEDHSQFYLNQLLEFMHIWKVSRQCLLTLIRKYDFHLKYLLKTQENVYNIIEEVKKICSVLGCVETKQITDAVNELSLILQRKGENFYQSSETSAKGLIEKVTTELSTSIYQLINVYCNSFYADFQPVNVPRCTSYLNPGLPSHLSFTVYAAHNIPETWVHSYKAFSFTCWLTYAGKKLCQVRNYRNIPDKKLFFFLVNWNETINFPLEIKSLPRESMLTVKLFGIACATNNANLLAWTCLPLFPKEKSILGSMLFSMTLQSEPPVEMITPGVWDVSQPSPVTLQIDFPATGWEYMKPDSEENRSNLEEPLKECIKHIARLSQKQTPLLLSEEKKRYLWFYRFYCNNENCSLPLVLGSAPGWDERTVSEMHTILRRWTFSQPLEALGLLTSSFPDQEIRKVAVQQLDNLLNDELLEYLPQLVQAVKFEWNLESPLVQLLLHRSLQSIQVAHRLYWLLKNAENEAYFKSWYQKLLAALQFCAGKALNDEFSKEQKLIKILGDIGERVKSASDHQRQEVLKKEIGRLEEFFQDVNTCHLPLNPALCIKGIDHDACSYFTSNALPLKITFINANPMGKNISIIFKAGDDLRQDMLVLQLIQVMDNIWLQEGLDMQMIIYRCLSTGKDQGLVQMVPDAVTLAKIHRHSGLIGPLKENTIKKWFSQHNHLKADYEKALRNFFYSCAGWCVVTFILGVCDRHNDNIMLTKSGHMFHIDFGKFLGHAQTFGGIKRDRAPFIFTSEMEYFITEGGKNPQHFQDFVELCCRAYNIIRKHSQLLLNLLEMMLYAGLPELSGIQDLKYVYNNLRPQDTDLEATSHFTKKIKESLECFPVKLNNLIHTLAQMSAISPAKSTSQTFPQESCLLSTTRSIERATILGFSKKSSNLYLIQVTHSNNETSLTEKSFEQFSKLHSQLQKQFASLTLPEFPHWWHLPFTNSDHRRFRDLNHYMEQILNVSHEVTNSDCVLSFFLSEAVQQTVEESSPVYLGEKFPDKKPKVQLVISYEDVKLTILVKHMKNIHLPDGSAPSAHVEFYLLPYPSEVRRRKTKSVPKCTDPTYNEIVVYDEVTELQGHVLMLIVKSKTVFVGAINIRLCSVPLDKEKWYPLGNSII

BRK = target: T8, BRK (Homo sapiens, UniProt Q13882)
T8 construct: purchased Eurofins DiscoverX KINOMEscan
T8 sequence (Q13882 whole entry): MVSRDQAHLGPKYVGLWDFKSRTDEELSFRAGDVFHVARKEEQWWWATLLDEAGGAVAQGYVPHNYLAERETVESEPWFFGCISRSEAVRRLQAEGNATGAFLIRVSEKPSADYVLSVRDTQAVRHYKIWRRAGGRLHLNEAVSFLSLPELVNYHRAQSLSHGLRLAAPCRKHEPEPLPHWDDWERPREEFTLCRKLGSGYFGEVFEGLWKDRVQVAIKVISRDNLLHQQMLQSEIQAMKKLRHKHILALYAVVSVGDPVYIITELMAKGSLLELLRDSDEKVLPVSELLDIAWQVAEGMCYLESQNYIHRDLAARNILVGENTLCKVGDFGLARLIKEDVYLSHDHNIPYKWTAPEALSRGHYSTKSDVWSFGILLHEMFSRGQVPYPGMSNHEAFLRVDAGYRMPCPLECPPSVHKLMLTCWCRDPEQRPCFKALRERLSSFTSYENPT

KIT(L576P) = target: T9, KIT(L576P) (Homo sapiens, UniProt P10721, L576P)
T9 construct: purchased Eurofins DiscoverX KINOMEscan

RET(M918T) = target: T10, RET(M918T) (Homo sapiens, UniProt P07949, M918T)
T10 construct: purchased Eurofins DiscoverX KINOMEscan
T10 sequence (P07949 29-1114 M918T): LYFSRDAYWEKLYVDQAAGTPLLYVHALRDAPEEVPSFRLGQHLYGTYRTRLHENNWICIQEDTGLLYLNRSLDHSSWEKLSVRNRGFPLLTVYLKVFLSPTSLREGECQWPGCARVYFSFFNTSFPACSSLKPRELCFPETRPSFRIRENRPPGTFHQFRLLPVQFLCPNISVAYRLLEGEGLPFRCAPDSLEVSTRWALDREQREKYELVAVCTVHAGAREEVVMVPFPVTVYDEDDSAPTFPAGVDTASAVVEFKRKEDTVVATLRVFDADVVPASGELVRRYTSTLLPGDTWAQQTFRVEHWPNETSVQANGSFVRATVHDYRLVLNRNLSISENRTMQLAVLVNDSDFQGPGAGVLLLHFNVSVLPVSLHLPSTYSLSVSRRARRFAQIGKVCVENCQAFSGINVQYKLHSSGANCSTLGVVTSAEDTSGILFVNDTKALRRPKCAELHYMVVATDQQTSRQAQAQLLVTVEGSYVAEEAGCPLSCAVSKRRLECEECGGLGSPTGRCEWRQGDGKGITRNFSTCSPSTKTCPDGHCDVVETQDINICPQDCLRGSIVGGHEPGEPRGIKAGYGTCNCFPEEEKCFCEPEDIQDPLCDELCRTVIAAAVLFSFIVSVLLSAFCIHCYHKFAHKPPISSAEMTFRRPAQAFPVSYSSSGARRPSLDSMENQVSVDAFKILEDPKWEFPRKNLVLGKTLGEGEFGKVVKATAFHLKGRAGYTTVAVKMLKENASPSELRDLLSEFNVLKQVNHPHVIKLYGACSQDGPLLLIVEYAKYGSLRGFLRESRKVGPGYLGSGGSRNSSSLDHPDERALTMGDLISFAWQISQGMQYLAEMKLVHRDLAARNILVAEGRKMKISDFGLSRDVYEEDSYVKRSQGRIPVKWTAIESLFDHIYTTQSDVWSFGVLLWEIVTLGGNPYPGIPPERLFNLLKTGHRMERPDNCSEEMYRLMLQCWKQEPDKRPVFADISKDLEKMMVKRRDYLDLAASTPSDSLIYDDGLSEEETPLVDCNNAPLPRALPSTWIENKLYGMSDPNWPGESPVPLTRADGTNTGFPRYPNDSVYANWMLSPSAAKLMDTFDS

T2 sequence (P00533 25-1210 G719S limits assumed): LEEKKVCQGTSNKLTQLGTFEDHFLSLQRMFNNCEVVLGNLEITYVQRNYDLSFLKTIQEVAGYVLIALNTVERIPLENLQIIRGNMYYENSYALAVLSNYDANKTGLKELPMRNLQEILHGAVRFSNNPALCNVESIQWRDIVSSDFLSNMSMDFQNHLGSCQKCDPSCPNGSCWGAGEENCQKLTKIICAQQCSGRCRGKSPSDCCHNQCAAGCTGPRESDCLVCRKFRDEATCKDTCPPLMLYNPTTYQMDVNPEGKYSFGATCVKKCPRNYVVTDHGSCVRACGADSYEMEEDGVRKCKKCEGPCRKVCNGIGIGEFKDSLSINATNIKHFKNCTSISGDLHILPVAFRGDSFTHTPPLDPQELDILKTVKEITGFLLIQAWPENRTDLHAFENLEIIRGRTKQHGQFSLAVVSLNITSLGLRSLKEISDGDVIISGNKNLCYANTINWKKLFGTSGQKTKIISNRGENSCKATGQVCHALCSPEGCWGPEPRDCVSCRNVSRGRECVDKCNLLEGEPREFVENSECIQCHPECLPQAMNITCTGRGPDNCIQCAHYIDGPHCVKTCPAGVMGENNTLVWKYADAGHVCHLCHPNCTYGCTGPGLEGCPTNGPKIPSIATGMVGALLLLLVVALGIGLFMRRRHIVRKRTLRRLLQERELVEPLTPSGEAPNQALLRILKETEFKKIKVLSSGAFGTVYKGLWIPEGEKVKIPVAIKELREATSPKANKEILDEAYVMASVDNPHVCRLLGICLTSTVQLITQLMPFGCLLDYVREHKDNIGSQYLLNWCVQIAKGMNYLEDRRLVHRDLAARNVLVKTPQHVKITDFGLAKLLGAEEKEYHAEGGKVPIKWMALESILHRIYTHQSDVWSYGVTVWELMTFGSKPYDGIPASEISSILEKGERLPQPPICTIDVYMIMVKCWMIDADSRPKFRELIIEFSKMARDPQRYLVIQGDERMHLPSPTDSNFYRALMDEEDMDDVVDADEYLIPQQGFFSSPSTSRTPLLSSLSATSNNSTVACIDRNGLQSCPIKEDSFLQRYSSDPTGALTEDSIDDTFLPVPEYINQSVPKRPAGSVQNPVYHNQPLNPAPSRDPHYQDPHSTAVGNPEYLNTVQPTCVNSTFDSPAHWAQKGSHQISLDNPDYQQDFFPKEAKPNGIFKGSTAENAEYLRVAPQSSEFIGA
T1 sequence (Q8TDR2 whole entry): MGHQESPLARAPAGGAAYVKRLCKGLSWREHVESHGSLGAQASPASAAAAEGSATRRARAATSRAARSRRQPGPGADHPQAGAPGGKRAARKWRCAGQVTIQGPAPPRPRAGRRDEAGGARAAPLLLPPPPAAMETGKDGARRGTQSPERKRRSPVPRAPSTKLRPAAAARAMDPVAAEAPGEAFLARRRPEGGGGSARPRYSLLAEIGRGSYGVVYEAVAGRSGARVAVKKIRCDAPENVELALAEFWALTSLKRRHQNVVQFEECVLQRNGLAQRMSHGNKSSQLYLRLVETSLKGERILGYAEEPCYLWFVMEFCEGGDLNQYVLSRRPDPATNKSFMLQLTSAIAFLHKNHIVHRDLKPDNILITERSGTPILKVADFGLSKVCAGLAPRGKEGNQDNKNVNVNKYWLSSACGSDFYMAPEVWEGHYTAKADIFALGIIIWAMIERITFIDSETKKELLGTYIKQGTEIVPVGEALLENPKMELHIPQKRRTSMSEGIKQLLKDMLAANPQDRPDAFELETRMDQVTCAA

Row | SMILES | remaining binding at 1 µM (STK35) | remaining binding at 1 µM (EGFR(G719S)) | remaining binding at 1 µM (FLT3(N841I)) | remaining binding at 1 µM (PAK3) | remaining binding at 1 µM [1] | remaining binding at 1 µM (AURKB) | remaining binding at 1 µM (PIK3C2G) | remaining binding at 1 µM (BRK) | remaining binding at 1 µM (KIT(L576P)) | remaining binding at 1 µM (RET(M918T))
1 | Clc1cc(NCC2CC2)c2ncc(-c3ccc4[nH]ncc4c3)n2n1 [compound 2, 6-Chloro-N-(cyclopropylmethyl)-3-(1H-indazol-5-yl)imidazo[1,2-b]pyridazin-8-amine] | 77% | 85% | 7.5% | 63% | 100% | 90% | 91% | 87% | 1.2% | 100%
2 | O=C(CN1CCOCC1)N[C@H]1CC[C@H](Nc2cc(Cl)nn3c(-c4ccc5[nH]ncc5c4)cnc23)CC1 [compound 26] | 97% | 97% | 0% | 81% | 100% | 55% | 80% | 85% | 0% | 92%
3 | CN1CCC(CNc2cc(Cl)nn3c(-c4cc5nc(Nc6ccccc6)[nH]c5cc4F)cnc23)CC1 [compound 31, 6-Chloro-3-(6-fluoro-2-(phenylamino)-1H-benzo[d]imidazol-5-yl)-N-((1-methylpiperidin-4-yl)methyl)imidazo[1,2-b]pyridazin-8-amine] | 100% | 71% | 96% | 100% | 82% | 83% | 82% | 93% | 61% | 80%
